Values quoted from earlier work in US20180185509A1, “AMATOXIN-CONJUGATES WITH IMPROVED LINKAGES” (Heidelberg Pharma GmbH, priority 2011, published 2018).
pKd: −log10 of the molar value.

Molecular target: RNA-polymerase II (Homo sapiens, UniProt P24928)
Details: read-out: KD of the complex between amanitin and RNA-polymerase II

For amanitin, the pKd is listed as 8.52.
